Source: patent publication US20160041192A1 (Ameritox, Ltd., priority 2014, published 2016)

Key:
[1] = human urine; major defined by ≧10% total drug exposure (Baselt 2014); cited from earlier work
[2] = post oral dosing; cited from earlier work
[3] = Urine test of patients prescribed Seroquel after enzymatic hydrolysis with recombinant β-glucuronidase, QQQ; assay type: in vivo, human; conditions: patient prescribed Seroquel, various doses
Protocol: 100 μL of each patient specimen was diluted with 400 μL of a “master mix” that included 1.6 μg/mL of quetiapine-D8 (internal standard), 0.06 M phosphate buffer, and at least 1450 U of a recombinant β-glucuronidase enzyme.

[4] = human, in vivo
Protocol: (§1) Samples were subsequently vortexed and centrifuged prior to the injection of 5 μL on the QQQ. Each patient sample was analyzed twice to ensure accuracy.
(§2) Samples were subsequently vortexed and centrifuged prior to the injection of 5 μL on the QQQ.
as §2, §1, §2, §2, §2, §2, §2

[5] = cited from earlier work
[6] = humans; cited from earlier work

Structure (SMILES): c1ccc2c(c1)N=C(N1CCNCC1)c1ccccc1S2 [N-Desalkyl Quetiapine, N-Desalkyl Quetiapine (Norquetiapine)]
- abundance in urine [1]: only small quantities
- share of the total radioactivity in plasma [2]: 10%

Structure (SMILES): [O-][S+]1c2ccccc2N=C(N2CCN(CCOCCO)CC2)c2ccccc21 (centres unmarked) [Quetiapine Sulfoxide]
- Urine concentration, Post-Hydrolysis Results, Subject W [3]: ND (Indicates that the listed parent or metabolite compound was either not detected or detected below the established cut-off of 5 ng/mL indicating a negative result for that particular subject.)
- abundance in urine [1]: major
- Urine concentration, Pre-Hydrolysis Results, Average [4]: 2318 ng/mL
- Urine concentration, Pre-Hydrolysis Results, Maximum Value [4]: >5000 ng/mL
- Urine concentration, Pre-Hydrolysis Results, Median Value [4]: 2143 ng/mL
- Urine concentration, Pre-Hydrolysis Results, Subject HR [4]: >5000 ng/mL
- Urine concentration, Pre-Hydrolysis Results, Subject eight [4]: >5000 ng/mL
- Urine concentration, Pre-Hydrolysis Results, Subject eighteen [4]: >5000 ng/mL
- Urine concentration, Pre-Hydrolysis Results, Subject eleven [4]: 2143 ng/mL
- Urine concentration, Pre-Hydrolysis Results, Subject fifteen [4]: 740 ng/mL
- Urine concentration, Pre-Hydrolysis Results, Subject five [4]: 4484 ng/mL
- Urine concentration, Pre-Hydrolysis Results, Subject four [4]: >5000 ng/mL
- Urine concentration, Pre-Hydrolysis Results, Subject fourteen [4]: >5000 ng/mL
- Urine concentration, Pre-Hydrolysis Results, Subject nine [4]: >5000 ng/mL
- Urine concentration, Pre-Hydrolysis Results, Subject one [4]: >5000 ng/mL
- Urine concentration, Pre-Hydrolysis Results, Subject seven [4]: >5000 ng/mL
- Urine concentration, Pre-Hydrolysis Results, Subject seventeen [4]: >5000 ng/mL
- Urine concentration, Pre-Hydrolysis Results, Subject six [4]: 1252 ng/mL
- Urine concentration, Pre-Hydrolysis Results, Subject sixteen [4]: 2971 ng/mL
- Urine concentration, Pre-Hydrolysis Results, Subject thirteen [4]: >5000 ng/mL
- Urine concentration, Pre-Hydrolysis Results, Subject three [4]: >5000 ng/mL
- Urine concentration, Pre-Hydrolysis Results, Subject twelve [4]: >5000 ng/mL
- Urine concentration, Pre-Hydrolysis Results, Subject twenty [4]: >5000 ng/mL
- Urine concentration, Pre-Hydrolysis Results, Subject twenty-five [4]: >5000 ng/mL
- Urine concentration, Pre-Hydrolysis Results, Subject twenty-four [4]: >5000 ng/mL
- Urine concentration, Pre-Hydrolysis Results, Subject twenty-one [4]: >5000 ng/mL
- Urine concentration, Pre-Hydrolysis Results, Subject twenty-two [4]: >5000 ng/mL
- Urine concentration, Pre-Hydrolysis Results, Subject two [4]: >5000 ng/mL

Structure (SMILES): O=C(O)COCCN1CCN(C2=Nc3ccccc3Sc3ccccc32)CC1 [Quetiapine Carboxylic Acid]
- abundance in urine [1]: major
- Urine concentration, Pre-Hydrolysis Results, Subject HR [4]: >5000 ng/mL
- Urine concentration, Pre-Hydrolysis Results, Subject T [4]: 6 ng/mL
- Urine concentration, Pre-Hydrolysis Results, Subject W [4]: 5 ng/mL
- Urine concentration, Pre-Hydrolysis Results, Subject eight [4]: >5000 ng/mL
- Urine concentration, Pre-Hydrolysis Results, Subject eighteen [4]: >5000 ng/mL
- Urine concentration, Pre-Hydrolysis Results, Subject eleven [4]: >5000 ng/mL
- Urine concentration, Pre-Hydrolysis Results, Subject fifteen [4]: >5000 ng/mL
- Urine concentration, Pre-Hydrolysis Results, Subject five [4]: >5000 ng/mL
- Urine concentration, Pre-Hydrolysis Results, Subject four [4]: >5000 ng/mL
- Urine concentration, Pre-Hydrolysis Results, Subject fourteen [4]: >5000 ng/mL
- Urine concentration, Pre-Hydrolysis Results, Subject nine [4]: >5000 ng/mL
- Urine concentration, Pre-Hydrolysis Results, Subject nineteen [4]: 5 ng/mL
- Urine concentration, Pre-Hydrolysis Results, Subject one [4]: >5000 ng/mL
- Urine concentration, Pre-Hydrolysis Results, Subject seven [4]: >5000 ng/mL
- Urine concentration, Pre-Hydrolysis Results, Subject seventeen [4]: >5000 ng/mL
- Urine concentration, Pre-Hydrolysis Results, Subject sixteen [4]: >5000 ng/mL
- Urine concentration, Pre-Hydrolysis Results, Subject thirteen [4]: >5000 ng/mL
- Urine concentration, Pre-Hydrolysis Results, Subject three [4]: >5000 ng/mL
- Urine concentration, Pre-Hydrolysis Results, Subject twelve [4]: >5000 ng/mL
- Urine concentration, Pre-Hydrolysis Results, Subject twenty [4]: >5000 ng/mL
- Urine concentration, Pre-Hydrolysis Results, Subject twenty-five [4]: >5000 ng/mL
- Urine concentration, Pre-Hydrolysis Results, Subject twenty-four [4]: >5000 ng/mL
- Urine concentration, Pre-Hydrolysis Results, Subject twenty-three [4]: 10 ng/mL
- Urine concentration, Pre-Hydrolysis Results, Subject twenty-two [4]: >5000 ng/mL

Structure (SMILES): OCCOCCN1CCN(C2=Nc3ccccc3Sc3ccccc32)CC1 [Quetiapine, 2-(2-(4-dibenzo[b,f][1,4]thiazepine-11-yl-1-piperazinyl)ethoxy) ethanol, reference compound]
- time to steady state serum concentrations ([5]; days of dosing): 2 days
- increase of bioavailability ([5]; dosing with a light meal (~300 calories)): ~20%
- mean elimination half-life ([5]; in vivo): 6 h
- absorption ([5]; oral administration): rapidly absorbed
- Urine concentration, Post-Hydrolysis Results, Subject T [3]: 86 ng/mL
- Urine concentration, Post-Hydrolysis Results, Subject W [3]: ND (Indicates that the listed parent or metabolite compound was either not detected or detected below the established cut-off of 5 ng/mL indicating a negative result for that particular subject.)
- Urine concentration, Post-Hydrolysis Results, Subject eleven [3]: 4059 ng/mL
- Urine concentration, Post-Hydrolysis Results, Subject fifteen [3]: >5000 ng/mL
- Urine concentration, Post-Hydrolysis Results, Subject four [3]: 2928 ng/mL
- Urine concentration, Post-Hydrolysis Results, Subject nine [3]: 1494 ng/mL
- Urine concentration, Post-Hydrolysis Results, Subject nineteen [3]: 29 ng/mL
- Urine concentration, Post-Hydrolysis Results, Subject seventeen [3]: >5000 ng/mL
- Urine concentration, Post-Hydrolysis Results, Subject sixteen [3]: 3019 ng/mL
- Urine concentration, Post-Hydrolysis Results, Subject twenty [3]: >5000 ng/mL
- Urine concentration, Post-Hydrolysis Results, Subject twenty-five [3]: 2579 ng/mL
- Urine concentration, Post-Hydrolysis Results, Subject twenty-three [3]: 14 ng/mL
- share of the total radioactivity in plasma [2]: 24%
- excreted in the feces [6]: 20%
- recovered in the urine [6]: 73%
- Urine concentration, Pre-Hydrolysis Results, Average [4]: 838 ng/mL
- Urine concentration, Pre-Hydrolysis Results, Maximum Value [4]: 4999 ng/mL
- Urine concentration, Pre-Hydrolysis Results, Median Value [4]: 287 ng/mL
- Urine concentration, Pre-Hydrolysis Results, Minimum Value [4]: 17 ng/mL
- Urine concentration, Pre-Hydrolysis Results, Subject HR [4]: 4574 ng/mL
- Urine concentration, Pre-Hydrolysis Results, Subject eight [4]: 120 ng/mL
- Urine concentration, Pre-Hydrolysis Results, Subject eighteen [4]: 755 ng/mL
- Urine concentration, Pre-Hydrolysis Results, Subject eleven [4]: 17 ng/mL
- Urine concentration, Pre-Hydrolysis Results, Subject fifteen [4]: 1118 ng/mL
- Urine concentration, Pre-Hydrolysis Results, Subject five [4]: 77 ng/mL
- Urine concentration, Pre-Hydrolysis Results, Subject four [4]: 187 ng/mL
- Urine concentration, Pre-Hydrolysis Results, Subject fourteen [4]: 917 ng/mL
- Urine concentration, Pre-Hydrolysis Results, Subject one [4]: 269 ng/mL
- Urine concentration, Pre-Hydrolysis Results, Subject seven [4]: 873 ng/mL
- Urine concentration, Pre-Hydrolysis Results, Subject seventeen [4]: 315 ng/mL
- Urine concentration, Pre-Hydrolysis Results, Subject six [4]: 77 ng/mL
- Urine concentration, Pre-Hydrolysis Results, Subject sixteen [4]: 97 ng/mL
- Urine concentration, Pre-Hydrolysis Results, Subject thirteen [4]: 1137 ng/mL
- Urine concentration, Pre-Hydrolysis Results, Subject three [4]: 304 ng/mL
- Urine concentration, Pre-Hydrolysis Results, Subject twelve [4]: 361 ng/mL
- Urine concentration, Pre-Hydrolysis Results, Subject twenty [4]: 208 ng/mL
- Urine concentration, Pre-Hydrolysis Results, Subject twenty-one [4]: 137 ng/mL
- Urine concentration, Pre-Hydrolysis Results, Subject twenty-two [4]: 222 ng/mL
- Urine concentration, Pre-Hydrolysis Results, Subject two [4]: 4999 ng/mL
